Measured values as given in patent US11124779B2, “Compositions and methods for treating and preventing pancreatitis, renal injury and cancer” (Yale University, priority 2014, dated 2021).
Where a SMILES comes first, the peptide text is derived from it. Where no end group is shown, it is not given here.

Legend:
HK-2 cells [1] = test: In vitro model of cisplatin toxicity: HK-2 cell survival by the WST-1 method; format: cell-based, human
Procedure: FIG. 1B is a graph depicting the effect of renalase peptides on survival of HK-2 cells exposed to 20 μM cisplatin for 24 hrs; cell survival is depicted as % change in survival compared to that in cisplatin-treated HK-2 cells without renalase peptides; cell survival was measured by the WST-1 method; RP-A220: mutated RP-220, and RP-19 and RP-128: control peptides; peptide concentration (μg/ml) indicated in top line; n=4, *=p<0.05. […]
HK-2 cells (human proximal tubular line) obtained from ATTC (Manassas, Va., USA) were cultured in DMEM/F12 supplemented with glutamine, 10% FBS and antibiotics, and were maintained at 37° C. in 5% CO2. Cells were exposed to cisplatin (20 μM) in the presence or absence of recombinant renalase or renalase peptides for 24 hrs, and cell viability was assessed by the WST1 method (Roche Applied Science, Germany).

HK-2 cells [2] = test: as above; format: cell-based, human; conditions: control conditions, no cisplatin
p38 MAPK = test: MAPK signaling by immunoblot: p38 phosphorylation in HK-2 cells; format: cell-based, human; conditions: cisplatin alone, 1-60 min
From the text: (§1) FIGS. 2A-2C, depict how RP-220 alters the pattern of MAPK activation in cisplatin treated cells. FIG. 2A is an image of a gel depicting MAPK phosphorylation with cisplatin alone (CP) and with CP and RP-220; representative study: p-p38: phosphorylated p38 MAPK; p-ERK: phosphorylated ERK. FIG. 2B is a graph depicting quantification of ERK activation. Signals were normalized to glyceraldehyde 3-phosphate dehydrogenase (GAPDH) loading control; n=3, *=P<0.05. FIG. 2C is a graph depicting quantification of p38 activation, signals normalized to GAPDH loading control; n=3, *=P<0.05.
(§2) FIGS. 5A-5E, depict how PMCA4b inhibition abrogates renalase peptide mediated MAPK signaling and cytoprotection. […] is a series of panels depicting how PMCA4b inhibition abrogates RP-220 mediated ERK and p38 signaling in HK-2 cells; caloxin1b=peptide inhibitor of PMCA4; left panel: RP-220 mediated ERK and p38 activation, phospho=phosphorylated, representative blot; middle panel: inhibition of RP-220 mediated ERK and p38 activation by caloxin1b (100 μM); right panel: quantification of phosphorylated p38 (P-p38) and phosphorylated ERK (p-ERK); signals were normalized to glyceraldehyde 3-phosphate dehydrogenase (GAPDH) loading control; n=3, *=P<0.05. […]

ERK = test: MAPK signaling by immunoblot: ERK phosphorylation in HK-2 cells; format: cell-based, human; conditions: cisplatin alone, 1-60 min
From the text: as §1, §2

HK-2 cells [3] = conditions: Wang et al., 2014; cited from earlier work
MAPK signaling = conditions: Wang et al., 2014; cited from earlier work
[4] = 20 μM cisplatin, 24 hrs, WST-1, range of peptide concentrations

Question: Which results are given for `C[S+]([O-])c1ccc(-c2nc(-c3ccncc3)c(-c3ccc(F)cc3)[nH]2)cc1` (stereo not shown) [SB203580, 4-[4′-Fluorophenyl]-2-[4′-methylsulfinylphenyl]-5-[4′-pyridyl]-imidazole, reference compound]?
Answer: effect of kinase inhibitor on protection by RP-220 against cisplatin (HK-2 cells [1]; HK-2 cells, 20 μM cisplatin 24 hrs plus RP-220, SB203580 10 μM): completely abrogated; survival of HK-2 cells with inhibitor alone (HK-2 cells [2]): did not adversely affect the survival

Question: Which “survival of HK-2 cells exposed to cisplatin (protective effect)” value (shortened to “survival of HK-2 cells exposed”) (HK-2 cells [1]; 20 μM cisplatin, 24 hrs, test substance 100 μg/ml) does the source give for “RP-224: renalase peptide, SEQ ID NO: 3, CVSIDNKKRNI, acetylated at the amino terminus (Ac-CVSIDNKKRNI; listed as Homo sapiens)” here?
Answer: protected HK-2 cells to a similar degree

Question: For “RP-128: control renalase peptide, SEQ ID NO: 2, FRHRVTQINLRDDKWEVSKQ, acetylated at the amino terminus (Ac-FRHRVTQINLRDDKWEVSKQ; listed as Homo sapiens)”, which “survival of HK-2 cells exposed” value (HK-2 cells [1]; [4]) is on record?
Answer: did not improve cell survival

Question: For `N.N.[Cl][Pt][Cl]` [Cisplatin, cisplatin], which p38 phosphorylation (p38 MAPK) is on record?
Answer: modestly increased

Question: And the ERK phosphorylation (ERK)?
Answer: modestly increased

Question: With “RP-A220: mutated RP-220, SEQ ID NO: 6, IRFVSIDNAAANIESSEIG (listed as Homo sapiens)” as the molecule, how does the “survival of HK-2 cells exposed” value (HK-2 cells [1]; [4]) read?
Answer: did not improve cell survival

Question: What about the “survival of HK-2 cells exposed” value (HK-2 cells [1]; 20 μM cisplatin, 24 hrs, test substance 80 μg/ml) of the same molecule?
Answer: exacerbated cisplatin toxicity

Question: With “RP-Scr220: scrambled RP-220 control peptide, SEQ ID NO: 7, CSKRIFKVISSIEDNNERG (listed as Homo sapiens)” as the molecule, how does the protection of cells (HK-2 cells [3]) read?
Answer: failed to protect cells

Question: What about the “activation of MAPK signaling” value (MAPK signaling) of the same molecule?
Answer: did not activate MAPK signaling

Question: What does the source list for `CC[C@H](C)[C@H](NC(=O)[C@H](CCC(=O)O)NC(=O)[C@H](CO)NC(=O)[C@H](CO)NC(=O)[C@H](CCC(=O)O)NC(=O)[C@@H](NC(=O)[C@H](CC(N)=O)NC(=O)[C@H](CCCNC(=N)N)NC(=O)[C@H](CCCCN)NC(=O)[C@H](CCCCN)NC(=O)[C@H](CC(N)=O)NC(=O)[C@H](CC(=O)O)NC(=O)[C@@H](NC(=O)[C@H](CO)NC(=O)[C@@H](NC(=O)[C@H](Cc1ccccc1)NC(=O)[C@H](CCCNC(=N)N)NC(=O)[C@@H](NC(=O)[C@H](CS)NC(C)=O)[C@@H](C)CC)C(C)C)[C@@H](C)CC)[C@@H](C)CC)C(=O)NCC(=O)O` [RP-220] (Ac-CIRFVSIDNKKRNIESSEIG-OH)?
Answer: protective effect against cisplatin cytotoxicity after down-regulation of PMCA4b expression (HK-2 cells [1]; HK-2 cells, PMCA4b siRNA, 20 μM cisplatin 24 hrs, peptide 15 μg/ml): abrogated; relative potency at protecting HK-2 cells against cisplatin cytotoxicity (concentration dependent effects) (HK-2 cells [1]; dose response curve, 20 μM cisplatin, 24 hrs): equipotent

Question: With “RP-19: control renalase peptide, SEQ ID NO: 1, LLRRQTSGPLYLAVWDKAED, acetylated at the amino terminus (Ac-LLRRQTSGPLYLAVWDKAED; listed as Homo sapiens)” as the molecule, how does the “survival of HK-2 cells exposed” value (HK-2 cells [1]; [4]) read?
Answer: did not improve cell survival
